{
  "source": "the supplement of paper PMC10307832",
  "test_in_all_cases": "relative viability (nuclei count vs DMSO), 5 days (fraction); higher = more cells survive",
  "key": {"[1]": {"compound": "c1ccc2c(CCNc3ccc(Nc4ccncc4)cc3)c[nH]c2c1 [Serdemetan] + CS(=O)(=O)CCNCc1ccc(-c2ccc3ncnc(Nc4ccc(OCc5cccc(F)c5)c(Cl)c4)c3c2)o1 [Lapatinib] (partner 2 µM)", "procedure,_shortened": "(§1)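 Lung cancer cell lines were seeded in 1536-well plates and dosed by pin tool the next day, with either a single drug or a fixed anchor-drug dose combined with five library-drug doses (not always all listed) spaced in √10 steps. Five days later, one step fixed the cells and stained their nuclei (final 0.05% Triton X-100, 1% formaldehyde, 1 ug/ml Hoechst), and nuclei were counted on 4× images. Relative viability is the nuclei count in treated wells divided by the count in vehicle wells, and each value is the median of duplicate plates.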"}, "[2]": {"compound": "C1CC(C2=C(C1)C3=C(N2)C=CC(=C3)Cl)C(=O)N [Selisistat] + CC(=O)Nc1cccc(-n2c(=O)n(C3CC3)c(=O)c3c(Nc4ccc(I)cc4F)n(C)c(=O)c(C)c32)c1 [Trametinib] (partner 0.02 µM)", "procedure,_shortened": "as §1"}, "[3]": {"compound": "C1CC(C2=C(C1)C3=C(N2)C=CC(=C3)Cl)C(=O)N [Selisistat] + CS(=O)(=O)N1CCN(Cc2cc3nc(-c4cccc5[nH]ncc45)nc(N4CCOCC4)c3s2)CC1 [Pictilisib] (partner 1 µM)", "procedure,_shortened": "as §1"}, "[4]": {"compound": "c1ccc2c(CCNc3ccc(Nc4ccncc4)cc3)c[nH]c2c1 [Serdemetan] + O=C(c1cc(Cc2n[nH]c(=O)c3ccccc23)ccc1F)N1CCN(C(=O)C2CC2)CC1 [Olaparib] (partner 8 µM)", "procedure,_shortened": "as §1"}},
  "data": [
    {"cell line": "UMC-11", "values": [
      {"measurement": "relative viability", "setting": "[1]; first compound 0.04 µM", "value": 0.953},
      {"measurement": "relative viability", "setting": "[1]; first compound 0.1265 µM", "value": 0.915},
      {"measurement": "relative viability", "setting": "[1]; first compound 0.4 µM", "value": 1.03},
      {"measurement": "relative viability", "setting": "[1]; first compound 1.265 µM", "value": 0.703},
      {"measurement": "relative viability", "setting": "[1]; first compound 4 µM", "value": 0.886},
      {"measurement": "relative viability", "setting": "[2]; first compound 0.4 µM", "value": 0.575},
      {"measurement": "relative viability", "setting": "[2]; first compound 1.265 µM", "value": 0.653},
      {"measurement": "relative viability", "setting": "[2]; first compound 4 µM", "value": 0.596},
      {"measurement": "relative viability", "setting": "[2]; first compound 12.65 µM", "value": 0.742},
      {"measurement": "relative viability", "setting": "[2]; first compound 40 µM", "value": 0.717},
      {"measurement": "relative viability", "setting": "[3]; first compound 0.4 µM", "value": 0.793},
      {"measurement": "relative viability", "setting": "[3]; first compound 1.265 µM", "value": 0.784},
      {"measurement": "relative viability", "setting": "[3]; first compound 4 µM", "value": 0.618},
      {"measurement": "relative viability", "setting": "[3]; first compound 12.65 µM", "value": 0.742},
      {"measurement": "relative viability", "setting": "[3]; first compound 40 µM", "value": 0.809},
      {"measurement": "relative viability", "setting": "[4]; first compound 0.04 µM", "value": 0.345},
      {"measurement": "relative viability", "setting": "[4]; first compound 0.1265 µM", "value": 0.332},
      {"measurement": "relative viability", "setting": "[4]; first compound 0.4 µM", "value": 0.319},
      {"measurement": "relative viability", "setting": "[4]; first compound 1.265 µM", "value": 0.255},
      {"measurement": "relative viability", "setting": "[4]; first compound 4 µM", "value": 0.593}
    ]}
  ]
}
